According to patent US11918581B2, “Combination therapy comprising JAK pathway inhibitor and rock inhibitor” (Incyte Corporation, priority 2021, dated 2024):

What was measured:
[1] = target: human JAK1 (a.a. 837-1142) (Homo sapiens, UniProt P23458); assay: In vitro JAK kinase assay (HTRF), JAK1; format: biochemical; details: 1 mM ATP
Protocol: (§1) The catalytic activity of JAK1, JAK2, or JAK3 was assayed by measuring the phosphorylation of a biotinylated peptide. The phosphorylated peptide was detected by homogenous time resolved fluorescence (HTRF). […] Reactions are carried out at room temperature for 1 hour and then stopped with 20 μL 45 mM EDTA, 300 nM SA-APC, 6 nM Eu-Py20 in assay buffer (Perkin Elmer, Boston, MA). Binding to the Europium labeled antibody takes place for 40 minutes and HTRF signal was measured on a Fusion plate reader (Perkin Elmer, Boston, MA).

[2] = target: human JAK2 (a.a. 828-1132) (Homo sapiens (Human), UniProt O60674); assay: In vitro JAK kinase assay (HTRF), JAK2; format: biochemical; details: JAK2/JAK1 IC50 ratio, 1 mM ATP
Chain of human JAK2 (a.a. 828-1132) (O60674 828-1132): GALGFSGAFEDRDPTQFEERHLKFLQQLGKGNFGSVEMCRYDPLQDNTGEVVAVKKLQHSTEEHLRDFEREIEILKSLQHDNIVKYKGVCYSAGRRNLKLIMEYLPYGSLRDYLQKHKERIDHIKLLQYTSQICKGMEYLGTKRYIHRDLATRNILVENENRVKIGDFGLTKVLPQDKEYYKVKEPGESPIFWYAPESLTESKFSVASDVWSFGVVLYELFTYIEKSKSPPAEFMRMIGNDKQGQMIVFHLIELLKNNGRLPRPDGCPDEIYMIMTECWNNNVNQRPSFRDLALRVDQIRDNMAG
Protocol: as §1

IC50 [1] | JAK2/JAK1 [2] | Compound
< 10 nM | >10 | CC(C)(O)c1cc(O[C@H]2CC[C@@H](N3CC(CC#N)(n4cc(-c5ncnc6[nH]ccc56)cn4)C3)CC2)nc(C(F)(F)F)c1 [Compound 20, {1-(cis-4-{[4-(1-hydroxy-1-methylethyl)-6-(trifluoromethyl)pyridin-2-yl]oxy}cyclohexyl)-3-[4-(7H-pyrrolo[2,3-d]pyrimidin-4-yl)-1H-pyrazol-1-yl]azetidin-3-yl}acetonitrile]
< 10 nM | >10 | N#CCC1(n2cc(-c3ncnc4[nH]ccc34)cn2)CN([C@H]2CC[C@@H](Oc3cc(CN4CC[C@@H](O)C4)cc(C(F)(F)F)n3)CC2)C1 [Compound 21, {1-(cis-4-{[4-{[(3R)-3-hydroxypyrrolidin-1-yl]methyl}-6-(trifluoromethyl)pyridin-2-yl]oxy}cyclohexyl)-3-[4-(7H-pyrrolo[2,3-d]pyrimidin-4-yl)-1H-pyrazol-1-yl]azetidin-3-yl}acetonitrile]
< 10 nM | >10 | N#CCC1(n2cc(-c3ncnc4[nH]ccc34)cn2)CN([C@H]2CC[C@@H](Oc3cc(CN4CC[C@H](O)C4)cc(C(F)(F)F)n3)CC2)C1 [Compound 22, {1-(cis-4-{[4-{[(3S)-3-hydroxypyrrolidin-1-yl]methyl}-6-(trifluoromethyl)pyridin-2-yl]oxy}cyclohexyl)-3-[4-(7H-pyrrolo[2,3-d]pyrimidin-4-yl)-1H-pyrazol-1-yl]azetidin-3-yl}acetonitrile]
< 10 nM | >10 | C[C@@H](CO)NCc1cc(OC2CCN([C@H]3C[C@](CC#N)(n4cc(-c5ncnc6[nH]ccc56)cn4)C3)CC2)nc(C(F)(F)F)c1 [Compound 23, {trans-3-(4-{[4-({[(1S)-2-hydroxy-1-methylethyl]amino}methyl)-6-(trifluoromethyl)pyridin-2-yl]oxy}piperidin-1-yl)-1-[4-(7H-pyrrolo[2,3-d]pyrimidin-4-yl)-1H-pyrazol-1-yl]cyclobutyl}acetonitrile]
< 10 nM | >10 | C[C@@H](O)CNCc1cc(OC2CCN([C@H]3C[C@](CC#N)(n4cc(-c5ncnc6[nH]ccc56)cn4)C3)CC2)nc(C(F)(F)F)c1 [Compound 24, {trans-3-(4-{[4-({[(2R)-2-hydroxypropyl]amino}methyl)-6-(trifluoromethyl)pyridin-2-yl]oxy}piperidin-1-yl)-1-[4-(7H-pyrrolo[2,3-d]pyrimidin-4-yl)-1H-pyrazol-1-yl]cyclobutyl}acetonitrile]
< 10 nM | >10 | C[C@H](O)CNCc1cc(OC2CCN([C@H]3C[C@](CC#N)(n4cc(-c5ncnc6[nH]ccc56)cn4)C3)CC2)nc(C(F)(F)F)c1 [Compound 25, {trans-3-(4-{[4-({[(2S)-2-hydroxypropyl]amino}methyl)-6-(trifluoromethyl)pyridin-2-yl]oxy}piperidin-1-yl)-1-[4-(7H-pyrrolo[2,3-d]pyrimidin-4-yl)-1H-pyrazol-1-yl]cyclobutyl}acetonitrile]
< 10 nM | >10 | N#CC[C@]1(n2cc(-c3ncnc4[nH]ccc34)cn2)C[C@H](N2CCC(Oc3cc(CCO)cc(C(F)(F)F)n3)CC2)C1 [Compound 26, {trans-3-(4-{[4-(2-hydroxyethyl)-6-(trifluoromethyl)pyridin-2-yl]oxy}piperidin-1-yl)-1-[4-(7H-pyrrolo[2,3-d]pyrimidin-4-yl)-1H-pyrazol-1-yl]cyclobutyl}acetonitrile]

Second part, the compound before the results:

Compound | IC50 [1] | JAK2/JAK1 [2]
N#CCC(C1CCN(c2cccc(Cl)n2)C1)n1cc(-c2ncnc3[nH]ccc23)cn1 (single isomer, unassigned) [Compound 6, 3-[1-(6-chloropyridin-2-yl)pyrrolidin-3-yl]-3-[4-(7H-pyrrolo[2,3-d]pyrimidin-4-yl)-1H-pyrazol-1-yl]propanenitrile] | < 10 nM | >10
N#CCC1(n2cc(-c3ncnc4[nH]ccc34)cn2)CN(C2CCN(C(=O)Nc3ccc(F)cc3C(F)(F)F)CC2)C1 [Compound 2, 4-{3-(Cyanomethyl)-3-[4-(7H-pyrrolo[2,3-d]pyrimidin-4-yl)-1H-pyrazol-1-yl]azetidin-1-yl}-N-[4-fluoro-2-(trifluoromethyl)phenyl] piperidine-1-carboxamide] | < 10 nM | >10
N#CCC1(n2cc(-c3ncnc4[nH]ccc34)cn2)CN(C2CCN(C(=O)c3ccnc(C(F)(F)F)n3)CC2)C1 [Compound 3, [3-[4-(7H-pyrrolo[2,3-d]pyrimidin-4-yl)-1H-pyrazol-1-yl]-1-(1-{[2-(trifluoromethyl)pyrimidin-4-yl]carbonyl}piperidin-4-yl)azetidin-3-yl]acetonitrile] | < 10 nM | >10
C[C@@H](O)c1nc2cnc3ccsc3c2n1[C@H]1CC[C@H](CC#N)OC1 [Compound 5, ((2R,5S)-5-{2-[(1R)-1-hydroxyethyl]-1H-imidazo[4,5-d]thieno[3,2-b]pyridin-1-yl}tetrahydro-2H-pyran-2-yl)acetonitrile] | < 100 nM | >10
N#CCC(C1CCN(c2nc3cccnc3o2)C1)n1cc(-c2ncnc3[nH]ccc23)cn1 (stereo not drawn) [Compound 7, 3-(1-[1,3]oxazolo[5,4-b]pyridin-2-ylpyrrolidin-3-yl)-3-[4-(7H-pyrrolo[2,3-d]pyrimidin-4-yl)-1H-pyrazol-1-yl]propanenitrile] | < 10 nM | >10
N#CCC(CN1CCN(C(=O)c2ccc(C#N)cc2F)CC1)n1cc(-c2ncnc3[nH]ccc23)cn1 (stereo not drawn) [Compound 8, 4-[(4-{3-cyano-2-[4-(7H-pyrrolo[2,3-d]pyrimidin-4-yl)-1H-pyrazol-1-yl]propyl}piperazin-1-yl)carbonyl]-3-fluorobenzonitrile] | < 10 nM | >10
N#CCC(CN1CCN(C(=O)c2ccc(C#N)cc2F)CC1)n1ccc(-c2ncnc3[nH]ccc23)c1 (stereo not drawn) [Compound 9, 4-[(4-{3-cyano-2-[3-(7H-pyrrolo[2,3-d]pyrimidin-4-yl)-1H-pyrrol-1-yl]propyl}piperazin-1-yl)carbonyl]-3-fluorobenzonitrile] | < 10 nM | >10
N#CC[C@]1(n2cc(-c3ncnc4[nH]ccc34)cn2)C[C@H](N2CCN(C(=O)c3ccnc(C(F)(F)F)n3)CC2)C1 [Compound 10, [trans-1-[4-(7H-pyrrolo[2,3-d]pyrimidin-4-yl)-1H-pyrazol-1-yl]-3-(4-{[2-(trifluoromethyl)pyrimidin-4-yl]carbonyl}piperazin-1-yl)cyclobutyl]acetonitrile] | < 10 nM | >10
N#CC[C@]1(n2cc(-c3ncnc4[nH]ccc34)cn2)C[C@H](N2CCC(Oc3cc(CN4CC(O)C4)cc(C(F)(F)F)n3)CC2)C1 [Compound 11, {trans-3-(4-{[4-[(3-hydroxyazetidin-1-yl)methyl]-6-(trifluoromethyl)pyridin-2-yl]oxy}piperidin-1-yl)-1-[4-(7H-pyrrolo[2,3-d]pyrimidin-4-yl)-1H-pyrazol-1-yl]cyclobutyl}acetonitrile] | < 10 nM | >10
N#CC[C@]1(n2cc(-c3ncnc4[nH]ccc34)cn2)C[C@H](N2CCC(Oc3cc(CN4CCC[C@H]4CO)cc(C(F)(F)F)n3)CC2)C1 [Compound 12, {trans-3-(4-{[4-{[(2S)-2-(hydroxymethyl)pyrroli-din-1-yl]methyl}-6-(trifluoromethyl)pyridin-2-yl]oxy}piperidin-1-yl)-1-[4-(7H-pyrrolo[2,3-d]pyrimidin-4-yl)-1H-pyrazol-1-yl]cyclobutyl}acetonitrile] | < 10 nM | >10
N#CC[C@]1(n2cc(-c3ncnc4[nH]ccc34)cn2)C[C@H](N2CCC(Oc3cc(CN4CCC[C@@H]4CO)cc(C(F)(F)F)n3)CC2)C1 [Compound 13, {trans-3-(4-{[4-{[(2R)-2-(hydroxymethyl)pyrroli-din-1-yl]methyl}-6-(trifluoromethyl)pyridin-2-yl]oxy}piperidin-1-yl)-1-[4-(7H-pyrrolo[2,3-d]pyrimidin-4-yl)-1H-pyrazol-1-yl]cyclobutyl}acetonitrile] | < 10 nM | >10
C[C@H](NC(=O)c1cc(F)c(N2CC(CC#N)(n3cc(-c4ncnc5[nH]ccc45)cn3)C2)cc1F)C(F)(F)F [Compound 16, 4-{3-(cyanomethyl)-3-[4-(7H-pyrrolo[2,3-d]pyrimidin-4-yl)-1H-pyrazol-1-yl]azetidin-1-yl}-2,5-difluoro-N-[(1S)-2,2,2-trifluoro-1-methylethyl]benzamide] | < 10 nM | >10
N#CCC1(n2cc(-c3ncnc4[nH]ccc34)cn2)CN([C@H]2CC[C@@H](Oc3cc(CCO)nc(C(F)(F)F)n3)CC2)C1 [Compound 18, {1-(cis-4-{[6-(2-hydroxyethyl)-2-(trifluoromethyl)pyrimidin-4-yl]oxy}cyclohexyl)-3-[4-(7H-pyrrolo[2,3-d]pyrimidin-4-yl)-1H-pyrazol-1-yl]azetidin-3-yl}acetonitrile] | < 10 nM | >10
CCNCc1cc(O[C@H]2CC[C@@H](N3CC(CC#N)(n4cc(-c5ncnc6[nH]ccc56)cn4)C3)CC2)nc(C(F)(F)F)c1 [Compound 19, {1-(cis-4-{[4-[(ethylamino)methyl]-6-(trifluoromethyl)pyridin-2-yl]oxy}cyclohexyl)-3-[4-(7H-pyrrolo[2,3-d]pyrimidin-4-yl)-1H-pyrazol-1-yl]azetidin-3-yl}acetonitrile] | < 10 nM | >10
